The values that follow come from article PMC2766802 (Analytical biochemistry, 2009).

Molecules are shown by their SMILES. pIC50: −log10 of the molar value. Where a name gives a salt, the structure may show the parent alone. Read-outs that look alike come from different tables or passages of the source.

One data set deals with hERG channel (Homo sapiens, UniProt Q12809).
Data set [1] concerns untransduced U-2 OS cells. Briefly: thallium flux counter-screen in untransduced U-2 OS cells. Format: cell-based, human. The settings on record: concentration response (Fig. 3A).
[2] abbreviates: IC50, LOPAC 1280 library qHTS, titration series, hERG-expressing U-2 OS cells.

Sequence of hERG channel (Q12809 whole entry): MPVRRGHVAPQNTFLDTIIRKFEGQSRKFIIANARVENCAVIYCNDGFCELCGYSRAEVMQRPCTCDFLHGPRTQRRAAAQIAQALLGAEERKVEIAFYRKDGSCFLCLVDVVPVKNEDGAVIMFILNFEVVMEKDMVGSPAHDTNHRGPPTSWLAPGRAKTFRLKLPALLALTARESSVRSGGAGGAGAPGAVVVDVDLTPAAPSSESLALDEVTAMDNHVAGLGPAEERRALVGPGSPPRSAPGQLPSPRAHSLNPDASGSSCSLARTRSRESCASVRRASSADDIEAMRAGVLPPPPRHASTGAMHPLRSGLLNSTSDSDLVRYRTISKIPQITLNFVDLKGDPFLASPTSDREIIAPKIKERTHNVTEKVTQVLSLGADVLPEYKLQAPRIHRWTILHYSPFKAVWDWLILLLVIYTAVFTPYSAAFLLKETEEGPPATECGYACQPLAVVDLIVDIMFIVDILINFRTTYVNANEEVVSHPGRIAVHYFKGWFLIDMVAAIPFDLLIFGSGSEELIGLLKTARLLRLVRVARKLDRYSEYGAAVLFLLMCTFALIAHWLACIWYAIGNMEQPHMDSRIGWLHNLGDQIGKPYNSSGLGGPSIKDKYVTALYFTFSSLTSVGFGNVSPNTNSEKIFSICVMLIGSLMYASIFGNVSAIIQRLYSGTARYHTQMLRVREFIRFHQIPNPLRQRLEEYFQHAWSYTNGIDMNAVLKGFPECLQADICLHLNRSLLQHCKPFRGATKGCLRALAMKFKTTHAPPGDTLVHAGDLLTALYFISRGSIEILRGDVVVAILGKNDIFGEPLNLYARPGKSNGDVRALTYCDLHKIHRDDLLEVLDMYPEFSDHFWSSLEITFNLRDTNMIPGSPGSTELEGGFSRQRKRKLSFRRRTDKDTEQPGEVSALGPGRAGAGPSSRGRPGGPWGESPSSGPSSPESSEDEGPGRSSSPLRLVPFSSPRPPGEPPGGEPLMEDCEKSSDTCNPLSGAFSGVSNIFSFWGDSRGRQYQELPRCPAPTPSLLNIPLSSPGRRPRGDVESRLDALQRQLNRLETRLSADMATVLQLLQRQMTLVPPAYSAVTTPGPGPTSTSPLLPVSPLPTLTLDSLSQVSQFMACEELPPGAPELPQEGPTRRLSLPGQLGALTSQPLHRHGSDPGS

Compound `CCOC(=O)C1=C[C@]2(CC)CCCN3CCc4c(n1c1ccccc41)[C@@H]32` [Vinpocetine] gave a pIC50 against hERG channel of 6.85.

`CCNC(=O)N1CCN(CCCC(c2ccc(F)cc2)c2ccc(F)cc2)CC1` [Amperozide hydrochloride] showed a pIC50 against hERG channel (setting [2]) of 7.22.

Take `CCCCN1[C@@H]2CC[C@H]1CC(OC(c1ccc(F)cc1)c1ccc(F)cc1)C2` (some centres unmarked) [JHW 007 hydrochloride]: the pIC50 on hERG channel (LOPAC 1280 library qHTS, titration series, hERG-expressing U-2 OS cells) was 7.05.

Regarding `Cc1nc2sccn2c(=O)c1CCN1CCC(=C(c2ccc(F)cc2)c2ccc(F)cc2)CC1` [Ritanserin], the pIC50 against hERG channel (setting [2]) is 7.15.

Turning to `O=C(CCCN1CCC(O)(c2ccc(Cl)cc2)CC1)c1ccc(F)cc1` [haloperidol], in data set [1], the “effect on untransduced cells” value is given as “no effect”.
